The results in this text go back to patent publication US7410975B2, “Small molecule toll-like receptor (TLR) antagonists” (Coley Pharmaceutical Group, Inc., priority 2003, dated 2008).

Where a name gives a salt, the structure may show the parent alone.

One experiment addresses T1, human TLR9 (hTLR9) (Homo sapiens, UniProt Q9NR96).
T1 construct: expressed in transfected cells
T1 sequence (Q9NR96 26-1032): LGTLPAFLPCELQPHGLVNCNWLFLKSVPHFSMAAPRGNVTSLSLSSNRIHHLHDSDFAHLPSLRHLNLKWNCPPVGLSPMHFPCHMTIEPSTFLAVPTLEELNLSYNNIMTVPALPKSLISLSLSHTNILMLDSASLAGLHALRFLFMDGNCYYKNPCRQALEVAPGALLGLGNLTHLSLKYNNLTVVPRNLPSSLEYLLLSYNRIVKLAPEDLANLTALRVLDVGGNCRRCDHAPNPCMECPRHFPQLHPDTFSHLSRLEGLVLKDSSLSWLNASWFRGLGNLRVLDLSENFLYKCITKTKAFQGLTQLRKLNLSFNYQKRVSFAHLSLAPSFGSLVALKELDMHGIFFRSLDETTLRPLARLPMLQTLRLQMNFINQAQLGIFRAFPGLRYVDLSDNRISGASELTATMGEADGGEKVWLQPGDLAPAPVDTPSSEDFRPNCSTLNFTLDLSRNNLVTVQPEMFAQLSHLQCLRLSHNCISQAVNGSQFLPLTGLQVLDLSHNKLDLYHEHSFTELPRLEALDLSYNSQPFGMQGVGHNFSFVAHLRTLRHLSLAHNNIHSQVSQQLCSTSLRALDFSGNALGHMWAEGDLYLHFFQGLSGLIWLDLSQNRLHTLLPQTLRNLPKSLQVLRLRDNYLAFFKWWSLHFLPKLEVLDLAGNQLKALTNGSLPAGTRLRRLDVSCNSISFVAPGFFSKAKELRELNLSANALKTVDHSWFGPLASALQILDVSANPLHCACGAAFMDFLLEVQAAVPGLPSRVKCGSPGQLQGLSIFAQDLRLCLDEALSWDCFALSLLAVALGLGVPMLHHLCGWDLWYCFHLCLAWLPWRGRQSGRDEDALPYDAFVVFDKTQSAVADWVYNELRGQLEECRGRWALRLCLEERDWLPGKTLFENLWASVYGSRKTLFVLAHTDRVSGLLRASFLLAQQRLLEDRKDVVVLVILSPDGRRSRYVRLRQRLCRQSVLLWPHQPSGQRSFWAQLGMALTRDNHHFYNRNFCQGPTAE
Briefly: Antagonist screen, hTLR9-NFκB-293 cells, 6× NF-κB-luciferase reporter, with EC50 of CpG ODN 2006. Particulars: FIG. 1, graph. It counts as cell-based. How it is done:
Candidate small molecules for initial screening were obtained from a commercially available library of 880 off-patent small molecules selected for structural diversity and proven bioavailability in humans (Prestwick Chemical Library). […] Results were measured as fold induction over baseline luciferase activity measured in the absence of ODN 2006 and compared to fold induction over baseline in the presence of the EC50 concentration of ODN 2006 alone. […] Additional screening was performed in like manner using additional small molecules selected from another library or specifically prepared for this purpose.
The method is described in greater detail as follows. The cells for each individual cell clone (hTLR3-NFκB-293, hTLR7-NFκB-293, hTLR8-NFκB-293 and hTLR9-NFκB-293) were counted and seeded one day before the stimulation at 1.5×10^4 cells per well in 96-well cell culture plates. To become adherent the cells were incubated after seeding overnight at 37° C. in 5% CO2 humidified air.
The screen for each compound was performed at the same time for all of the receptors TLR3, TLR7, TLR8 and TLR9. Up to fifteen test compounds, each assayed in duplicate at each of three different final concentrations (0.5 μg/ml, 5 μg/ml, and 50 μg/ml), were used for 16 h cell stimulation on a single multiwell culture plate. A 4× final concentration master plate was created to prepare the different test compounds before they were added to the cells.
Controls were added as duplicates individually for each cell clone on the cell culture plate. Positive controls were used as follows (final concentrations): 50 μg/ml poly(I:C) for hTLR3-NFκB-293; 8 μM resiquimod (R848) for hTLR7-NFκB-293; 30 μM R848 for hTLR8-NFκB-293; and 2.5 μM CpG-ODN 2006 for hTLR9-NFκB-293. Media alone was used as negative control. After addition of controls and small molecules, the cell clones were additionally stimulated with the EC50 concentration of the appropriate receptor-specific ligand.
The mean value of wells H2 and H5 (each with cells and EC50 concentration of the appropriate receptor-specific ligand) divided by the mean of wells H3 and H6 (each with cells alone) yielded the baseline response (i.e., fold induction of luciferase activity) to EC50 concentration of the appropriate receptor-specific ligand.
After 16 h stimulation the supernatant was removed and the cells treated with lysis buffer and stored at −80° C. before measuring.
For each screen result a graphical documentation was performed.
The baseline result (measured with addition of the EC50 concentration of the receptor-specific ligand) for each cell culture plate was measured as described above. Antagonistic effects were measured by down regulation compared to the baseline. Antagonists were scored as follows: • 13: compounds for which there was clear down regulation at 0.5 μg/ml, 5 μg/ml, and 50 μg/ml; • 12: compounds for which there was clear down regulation at 5 μg/ml and 50 μg/ml; • 11: compounds for which there was clear down regulation only at 50 μg/ml; • —: compounds for which there was no clear down regulation even at 50 μg/ml. Agonists
A general note: Reporter assays use an easily measured gene product as a stand-in for the process of interest.
`COc1ccc2c(c1)[nH]c1c(C)nccc12.Cl` [compound 613, harmine hydrochloride]: the “inhibition of TLR9 signaling in response to CpG ODN 2006 (FIG. 1)” value is “concentration-dependent inhibition”.
The same measure, in the same setting: in the case of `OCc1cc2c(cn1)[nH]c1ccccc12` [compound 878, 3-hydroxymethyl-beta-carboline] it was “concentration-dependent inhibition”.

Staying with this experiment, now noted: compound at 0.5, 5, 50 μg/ml; EC50 concentration of CpG ODN 2006; 16 h; NF-κB-luciferase.
In the case of `COC(=O)[C@H]1[C@H]2C[C@@H]3c4[nH]c5cc(OC)ccc5c4CCN3C[C@H]2C[C@@H](OC(=O)/C=C/c2cc(OC)c(OC)c(OC)c2)[C@@H]1OC` [compound 568, Rescinnamin], the “hTLR9 (inhibitory effect, antagonist score)” value was 12 (compounds for which there was clear down regulation at 5 μg/ml and 50 μg/ml).
Turning to `CC(=O)c1ccc2c(c1)N(CCCN(C)C)c1ccccc1S2.O=C(O)/C=C\C(=O)O` [compound 576, Acetopromazinemaleate salt], the “hTLR9 (inhibitory effect, antagonist score)” value is 12 (compounds for which there was clear down regulation at 5 μg/ml and 50 μg/ml).
Still for that read-out and setting: then `COC(=O)C1=CO[C@@H](C)[C@@H]2CN3CCc4c([nH]c5ccccc45)[C@@H]3C[C@H]12` [compound 593, Tetrahydroalstonine], with 11 (compounds for which there was clear down regulation only at 50 μg/ml).
On the same count and under the same terms, in the case of `CC[C@]12CCCN3CCc4c(n(c5ccccc45)C(=O)C1)[C@@H]32` [compound 607, Eburnamonine] it was “— (compounds for which there was no clear down regulation even at 50 μg/ml)”.
The same measure, in the same setting: in the case of `Cc1nccc2c1[nH]c1cc(O)ccc12.Cl` [compound 612, Harmol hydrochloride monohydrate] it was 12 (compounds for which there was clear down regulation at 5 μg/ml and 50 μg/ml); in that of `COc1ccc2c(c1)[nH]c1c(C)nccc12.Cl` [compound 613, harmine hydrochloride], 13 (compounds for which there was clear down regulation at 0.5 μg/ml, 5 μg/ml, and 50 μg/ml); in that of `Cc1c2ccncc2c(C)c2c1[nH]c1ccccc12` [compound 614, Ellipticine], 13 (compounds for which there was clear down regulation at 0.5 μg/ml, 5 μg/ml, and 50 μg/ml).
Take `Cc1nccc2c1[nH]c1ccccc12` [compound 620, Harmane hydrochloride]: the “hTLR9 (inhibitory effect, antagonist score)” value is 12 (compounds for which there was clear down regulation at 5 μg/ml and 50 μg/ml).
On the same count and under the same terms, then `COc1ccc2[nH]c3c(c2c1)CCN=C3C` [compound 621, Methoxy-6-harmalan], with 12 (compounds for which there was clear down regulation at 5 μg/ml and 50 μg/ml).
The same measure, in the same setting: in the case of `CC[C@]12CCCN3CCc4c(n(c5ccccc45)[C@](O)(C(=O)OC)C1)[C@@H]32` [compound 636, Epivincamine] it was “— (compounds for which there was no clear down regulation even at 50 μg/ml)”; in that of `Cl.Cl.c1ccc2c3c([nH]c2c1)C1C2CCC(C4CCCNC42)N1CC3` (centres unmarked) [compound 685, Nitrarine dihydorchloride], 11 (compounds for which there was clear down regulation only at 50 μg/ml).
`CN(C)CCCN1c2ccccc2Sc2ccccc21.Cl` [compound 693, Promazinehydrochloride]: the “hTLR9 (inhibitory effect, antagonist score)” value is 12 (compounds for which there was clear down regulation at 5 μg/ml and 50 μg/ml).
On the same count and under the same terms, then `CN1CCC(OC(c2ccccc2)c2ccccc2)CC1.Cl` [compound 707, Diphenylpyralinehydrochloride], with 12 (compounds for which there was clear down regulation at 5 μg/ml and 50 μg/ml); and `CCCC(C(=O)OCCN(CC)CC)(c1ccccc1)c1ccccc1.Cl` [compound 778, Proadifen hydrochloride], with 11 (compounds for which there was clear down regulation only at 50 μg/ml); and `Cl.Clc1ccc(C(OCCN2CCCCC2)c2ccccc2)cc1` (centres unmarked) [compound 793, Cloperastinehydrochloride], with 12 (compounds for which there was clear down regulation at 5 μg/ml and 50 μg/ml).
For `COc1ccc2c(c1)N(CC(C)CN(C)C)c1ccccc1S2.O=C(O)/C=C\C(=O)O` (centres unmarked) [compound 797, Methotrimeprazinemaleat salt], the “hTLR9 (inhibitory effect, antagonist score)” value is reported as “— (compounds for which there was no clear down regulation even at 50 μg/ml)”.
The same measure, in the same setting: then `CS(=O)(=O)O.OC(CCN1CCCCC1)(c1ccccc1)c1ccccc1` [compound 799, Pridinolmethanesulfonate salt], with 11 (compounds for which there was clear down regulation only at 50 μg/ml).
On the same count and under the same terms, then `C[N+]12CCC(CC1)C(OC(=O)C(O)(c1ccccc1)c1ccccc1)C2.[Br-]` (centres unmarked) [compound 822, Clidinium bromide], with 12 (compounds for which there was clear down regulation at 5 μg/ml and 50 μg/ml); and `Clc1ccc(C(c2ccccc2Cl)C(Cl)Cl)cc1` (centres unmarked) [compound 833, Mitotane], with 12 (compounds for which there was clear down regulation at 5 μg/ml and 50 μg/ml).
The same measure, in the same setting: in the case of `CCN(CC)C(C)CN1c2ccccc2Sc2ccccc21.Cl` (centres unmarked) [compound 840, Ethopropazinehydrochloride] it was 11 (compounds for which there was clear down regulation only at 50 μg/ml); in that of `CC(CN(C)C)CN1c2ccccc2Sc2ccccc21.CC(CN(C)C)CN1c2ccccc2Sc2ccccc21.O=C(O)C(O)C(O)C(=O)O` (centres unmarked) [compound 842, Trimeprazine tartrate], “— (compounds for which there was no clear down regulation even at 50 μg/ml)”; in that of `COC(=O)[C@H]1[C@H]2C[C@@H]3c4[nH]c5cc(OC)ccc5c4CCN3C[C@H]2C[C@@H](OC(=O)c2cc(OC)c(OC)c(OC)c2)[C@@H]1OC` [compound 875, Reserpine], 12 (compounds for which there was clear down regulation at 5 μg/ml and 50 μg/ml).
Consider `OCc1cc2c(cn1)[nH]c1ccccc12` [compound 878, 3-hydroxymethyl-beta-carboline], for which the “hTLR9 (inhibitory effect, antagonist score)” value is 12 (compounds for which there was clear down regulation at 5 μg/ml and 50 μg/ml).
On the same count and under the same terms, in the case of `O=C(O)c1cc(C(c2ccc(O)c(C(=O)O)c2)C(Cl)(Cl)Cl)ccc1O` [compound 884] it was “— (compounds for which there was no clear down regulation even at 50 μg/ml)”; in that of `CN(CCO)C(=O)c1cccc2c1-c1ccccc1C2=O` [compound 890], “— (compounds for which there was no clear down regulation even at 50 μg/ml)”; in that of `COC(=O)c1cccc2c1-c1ccccc1/C2=N/O` [compound 904], 13 (compounds for which there was clear down regulation at 0.5 μg/ml, 5 μg/ml, and 50 μg/ml).
Turning to `O=C(O)c1ccccc1NC1CC=CC2=C1C(=O)c1ccccc1C2=O` (centres unmarked) [compound 917], the “hTLR9 (inhibitory effect, antagonist score)” value is “— (compounds for which there was no clear down regulation even at 50 μg/ml)”.
